Columns and labels:
[1] = molecular target: EZH2 (Homo sapiens, UniProt Q15910); assay: EZH2 inhibition assay (Reaction Biology Corp.); assay type: biochemical; details: for IC50: 10-dose IC50 mode, 3-fold serial dilution starting at 10 μM, single experiment
Procedure: The EZH2 inhibitory ability of the synthesized adduct was assessed by Reaction Biology Corporation Malvern, PA. (http://www.reactionbiology.com).

[2] = molecular target: HSP90a (Homo sapiens, UniProt P07900); assay: In vitro Hsp90 assay (Reaction Biology Corp.); assay type: biochemical; details: for IC50: 10-dose IC50 mode, 3-fold serial dilution starting at 10 μM, single experiment, '-' read as no inhibition
Procedure: The HSP90 inhibitory activity of the synthesized adduct was assessed by Reaction Biology Corporation Malvern, PA. (http://www.reactionbiology.com).

[3] = tested on: TMZ-resistant cells (Pt3R); assay: Cell viability CCK8 assay; assay type: cell-based, human; details: 72 h; for IC50: Homo sapiens, CCK8, read-out: IC50, cell growth inhibitory effects
Source text: The CCK8 reagent was purchased from TargetMOI (Wellesley Hills, MA) and used according to the manufacturer’s instruction.

[4] = tested on: Pt#3-R-induced tumor; assay: In vivo anti-GBM efficacy, Pt3R xenograft; details: intraperitoneally twice per week; TAZ 10 or 20 mg/kg; STA+TAZ 5+5, 10+10, 15+15 mg/kg
Procedure: In vivo anti-GBM efficacy of compound 7 was also evaluated in this study. For the in vivo study, experimental NOD.CB17-Prkdc^scid/NCrCrl mice (8-week-old) were used and Pt3R cells (1 × 10^6) in 50 μL Dulbecco’s modified Eagle’s medium (DMEM) were injected into the back of mice. After 10 days, the tumor was detectable. […] In a nutshell, the outcome of the in vivo study ascertains that the remarkable in vitro anti-GBM activity profile of dual inhibitor 7 was translated to the in vivo potential.
Animal experiments were approved by the institutional animal care and use committee of Taipei Medical University (IACUC: LAC2022-0288). Male NOD.CB17-Prkdc^scid/NCrCrl mice (8-week-old) were purchased from BioLASCO Taiwan Co., Ltd. (Taipei, Taiwan). Pt3R cells (1 × 10^6) in 50 μL of DMEM were injected into the back of mice. Experimental mice were grouped as follows (Figure 11): DMSO (n = 5), C7–10 mg/kg (n = 4), C7–20 mg/kg (n = 6), TAZ-10 mg/kg (n = 6), TAZ-20 mg/kg (n = 8), STA-5+TAZ-5 mg/kg (n = 7), STA-10+TAZ-10 mg/kg (n = 7) and STA-15+TAZ-15 mg/kg (n = 7). After 10 days, the tumor was touchable. Mice were injected intraperitoneally with DMSO (the control group) or compounds twice per week.

EZH2, sequence (Q15910 whole entry): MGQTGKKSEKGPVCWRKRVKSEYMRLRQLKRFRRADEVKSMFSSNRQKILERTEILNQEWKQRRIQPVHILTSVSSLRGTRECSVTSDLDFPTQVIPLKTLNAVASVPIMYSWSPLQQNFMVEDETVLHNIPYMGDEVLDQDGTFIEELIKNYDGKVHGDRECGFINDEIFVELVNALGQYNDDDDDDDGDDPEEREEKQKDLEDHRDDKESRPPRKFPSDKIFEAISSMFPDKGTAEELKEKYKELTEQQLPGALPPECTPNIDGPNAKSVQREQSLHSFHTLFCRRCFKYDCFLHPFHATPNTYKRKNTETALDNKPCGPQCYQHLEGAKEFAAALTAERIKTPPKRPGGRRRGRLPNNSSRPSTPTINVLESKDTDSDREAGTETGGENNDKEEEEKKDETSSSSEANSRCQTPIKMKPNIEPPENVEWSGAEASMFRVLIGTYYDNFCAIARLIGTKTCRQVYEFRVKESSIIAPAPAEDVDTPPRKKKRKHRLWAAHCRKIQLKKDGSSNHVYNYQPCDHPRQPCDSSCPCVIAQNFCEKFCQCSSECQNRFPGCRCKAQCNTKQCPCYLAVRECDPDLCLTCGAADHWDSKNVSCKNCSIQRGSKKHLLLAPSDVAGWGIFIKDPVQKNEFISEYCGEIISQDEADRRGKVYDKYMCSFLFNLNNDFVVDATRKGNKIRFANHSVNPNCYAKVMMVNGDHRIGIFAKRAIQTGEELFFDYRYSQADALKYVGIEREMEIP
EZH2, sequence (O75530 whole entry partner): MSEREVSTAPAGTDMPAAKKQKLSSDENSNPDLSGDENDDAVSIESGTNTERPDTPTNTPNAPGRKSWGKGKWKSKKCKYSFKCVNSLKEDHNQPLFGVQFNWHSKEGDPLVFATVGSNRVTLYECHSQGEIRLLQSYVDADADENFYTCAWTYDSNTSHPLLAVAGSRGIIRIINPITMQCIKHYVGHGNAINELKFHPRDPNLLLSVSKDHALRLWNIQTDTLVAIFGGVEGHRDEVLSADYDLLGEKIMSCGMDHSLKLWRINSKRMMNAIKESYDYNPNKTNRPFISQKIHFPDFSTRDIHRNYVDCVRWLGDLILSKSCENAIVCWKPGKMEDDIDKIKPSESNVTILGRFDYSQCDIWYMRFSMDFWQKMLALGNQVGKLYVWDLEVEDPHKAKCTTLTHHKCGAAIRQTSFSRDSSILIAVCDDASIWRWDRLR
EZH2, sequence (Q15022 whole entry partner): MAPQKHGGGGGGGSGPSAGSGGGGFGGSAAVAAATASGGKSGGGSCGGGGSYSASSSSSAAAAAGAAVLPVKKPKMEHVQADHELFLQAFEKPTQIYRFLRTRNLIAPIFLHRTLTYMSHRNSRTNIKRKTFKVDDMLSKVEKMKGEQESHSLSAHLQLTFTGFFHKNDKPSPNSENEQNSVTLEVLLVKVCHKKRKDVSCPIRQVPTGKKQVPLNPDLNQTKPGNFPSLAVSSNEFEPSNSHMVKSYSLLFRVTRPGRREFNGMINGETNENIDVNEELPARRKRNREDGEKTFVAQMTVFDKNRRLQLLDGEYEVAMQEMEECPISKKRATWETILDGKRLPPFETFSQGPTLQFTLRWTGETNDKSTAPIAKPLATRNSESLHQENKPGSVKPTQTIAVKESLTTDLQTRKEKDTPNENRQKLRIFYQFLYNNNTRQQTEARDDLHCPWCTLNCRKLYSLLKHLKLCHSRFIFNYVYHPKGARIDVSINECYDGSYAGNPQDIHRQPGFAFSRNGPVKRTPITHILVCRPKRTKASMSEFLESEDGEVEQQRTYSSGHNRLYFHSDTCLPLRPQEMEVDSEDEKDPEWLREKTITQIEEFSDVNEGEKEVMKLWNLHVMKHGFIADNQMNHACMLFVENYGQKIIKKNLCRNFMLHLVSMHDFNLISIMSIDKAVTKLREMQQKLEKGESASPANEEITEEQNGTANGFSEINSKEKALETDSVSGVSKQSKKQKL
EZH2, sequence (Q09028 whole entry partner): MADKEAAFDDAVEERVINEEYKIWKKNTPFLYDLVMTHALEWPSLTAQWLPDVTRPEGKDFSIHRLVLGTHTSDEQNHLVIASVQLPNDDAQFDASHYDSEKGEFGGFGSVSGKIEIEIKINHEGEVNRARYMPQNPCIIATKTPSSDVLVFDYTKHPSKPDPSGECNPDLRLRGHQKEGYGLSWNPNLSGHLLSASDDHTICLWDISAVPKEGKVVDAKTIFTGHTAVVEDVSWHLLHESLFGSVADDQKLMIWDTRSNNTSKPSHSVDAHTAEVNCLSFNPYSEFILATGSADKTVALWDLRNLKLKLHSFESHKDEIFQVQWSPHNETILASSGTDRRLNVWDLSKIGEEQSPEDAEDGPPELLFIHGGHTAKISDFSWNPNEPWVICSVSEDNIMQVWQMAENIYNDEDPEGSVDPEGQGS
EZH2, sequence (Q6ZN18 whole entry partner): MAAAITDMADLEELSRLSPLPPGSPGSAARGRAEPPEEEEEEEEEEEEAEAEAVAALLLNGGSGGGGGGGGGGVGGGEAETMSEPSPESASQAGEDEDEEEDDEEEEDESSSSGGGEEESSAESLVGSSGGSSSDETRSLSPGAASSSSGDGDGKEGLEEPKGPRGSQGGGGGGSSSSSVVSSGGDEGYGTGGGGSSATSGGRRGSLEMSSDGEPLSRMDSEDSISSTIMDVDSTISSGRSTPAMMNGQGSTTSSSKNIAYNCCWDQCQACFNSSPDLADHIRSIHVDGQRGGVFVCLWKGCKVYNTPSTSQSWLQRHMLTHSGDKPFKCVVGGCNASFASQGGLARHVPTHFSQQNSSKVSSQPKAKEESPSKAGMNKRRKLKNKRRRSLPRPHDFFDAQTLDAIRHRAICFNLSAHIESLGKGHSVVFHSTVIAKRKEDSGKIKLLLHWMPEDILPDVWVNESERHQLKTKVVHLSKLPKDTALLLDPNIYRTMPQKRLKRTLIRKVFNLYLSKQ

Compound	IC50 [1] [nM]	HSP90 inhibitory potential (in words) [2]	cell growth inhibitory effects (in words) [3]	fold more potent in inhibiting EZH2 than counterpart 1 ([1]; compound 2 vs 1) [fold]	IC50 [2] [nM]	IC50 [3] [nM]	tumor growth [4]
CCN(c1cc(-c2ccc(NC(=O)c3cc(C(C)C)c(O)cc3O)cc2)cc(C(=O)NCc2c(C)cc(C)[nH]c2=O)c1C)C1CCOCC1 [Compound 1, 4′-(2,4-Fihydroxy-5-isopropylbenzamido)-N-((4,6-dimethyl-2-oxo-1,2-dihydropyridin-3-yl)methyl)-5-(ethyl(tetrahydro-2H-pyran-4-yl)amino)-4-methyl-[1,1′-biphenyl]-3-carboxamide]	6.14	devoid of HSP90 inhibitory potential	unable to exert cell growth inhibitory effects	–	–	–	–
CCN(c1cc(-c2cccc(NC(=O)c3cc(C(C)C)c(O)cc3O)c2)cc(C(=O)NCc2c(C)cc(C)[nH]c2=O)c1C)C1CCOCC1 [Compound 2, 3′-(2,4-Fihydroxy-5-isopropylbenzamido)-N-((4,6-dimethyl-2-oxo-1,2-dihydropyridin-3-yl)methyl)-5-(ethyl(tetrahydro-2H-pyran-4-yl)amino)-4-methyl-[1,1′-biphenyl]-3-carboxamide]	2.06	devoid of HSP90 inhibitory potential	unable to exert cell growth inhibitory effects	3	–	–	–
CCN(c1cc(-c2ccc(N(C)C(=O)c3cc(C(C)C)c(O)cc3O)cc2)cc(C(=O)NCc2c(C)cc(C)[nH]c2=O)c1C)C1CCOCC1 [Compound 3, 4′-(2,4-Dihydroxy-5-isopropyl-N-methylbenzamido)-N-((4,6-dimethyl-2-oxo-1,2-dihydropyridin-3-yl)methyl)-5-(ethyl(tetrahydro-2H-pyran-4-yl)amino)-4-methyl-[1,1′-biphenyl]-3-carboxamide]	7.21	–	–	–	343	27400 ± 1580	–
CCN(C(=O)c1cc(C(C)C)c(O)cc1O)c1ccc(-c2cc(C(=O)NCc3c(C)cc(C)[nH]c3=O)c(C)c(N(CC)C3CCOCC3)c2)cc1 [Compound 4, N-((4,6-Dimethyl-2-oxo-1,2-dihydropyridin-3-yl)methyl)-5-(ethyl(tetrahydro-2H-pyran-4-yl)amino)-4′-(N-ethyl-2,4-dihydroxy-5-isopropylbenzamido)-4-methyl-[1,1′-biphenyl]-3-carboxamide]	7.35	–	–	–	823	–	–
CCCN(C(=O)c1cc(C(C)C)c(O)cc1O)c1ccc(-c2cc(C(=O)NCc3c(C)cc(C)[nH]c3=O)c(C)c(N(CC)C3CCOCC3)c2)cc1 [Compound 5, 4′-(2,4-Dihydroxy-5-isopropyl-N-propylbenzamido)-N-((4,6-dimethyl-2-oxo-1,2-dihydropyridin-3-yl)methyl)-5-(ethyl(tetrahydro-2H-pyran-4-yl)amino)-4-methyl-[1,1′-biphenyl]-3-carboxamide]	21.8	–	–	–	–	–	–
CCN(c1cc(-c2ccc(N(Cc3ccccc3)C(=O)c3cc(C(C)C)c(O)cc3O)cc2)cc(C(=O)NCc2c(C)cc(C)[nH]c2=O)c1C)C1CCOCC1 [Compound 6, 4′-(N-Benzyl-2,4-dihydroxy-5-isopropylbenzamido)-N-((4,6-dimethyl-2-oxo-1,2-dihydropyridin-3-yl)methyl)-5-(ethyl(tetrahydro-2H-pyran-4-yl)amino)-4-methyl-[1,1′-biphenyl]-3-carboxamide]	11.7	–	–	–	> 10000	–	–
CCN(C(=O)c1cc(C(C)C)c(O)cc1O)c1cccc(-c2cc(C(=O)NCc3c(C)cc(C)[nH]c3=O)c(C)c(N(CC)C3CCOCC3)c2)c1 [Compound 8, N-((4,6-Dimethyl-2-oxo-1,2-dihydropyridin-3-yl)methyl)-5-(ethyl(tetrahydro-2H-pyran-4-yl)amino)-3′-(N-ethyl-2,4-dihydroxy-5-isopropylbenzamido)-4-methyl-[1,1′-biphenyl]-3-carboxamide]	36.6	–	–	–	63.6	10800 ± 1000	–
CCCN(C(=O)c1cc(C(C)C)c(O)cc1O)c1cccc(-c2cc(C(=O)NCc3c(C)cc(C)[nH]c3=O)c(C)c(N(CC)C3CCOCC3)c2)c1 [Compound 9, 3′-(2,4-Dihydroxy-5-isopropyl-N-propylbenzamido)-N-((4,6-dimethyl-2-oxo-1,2-dihydropyridin-3-yl)methyl)-5-(ethyl(tetrahydro-2H-pyran-4-yl)amino)-4-methyl-[1,1′-biphenyl]-3-carboxamide]	40.1	–	unable to exert cell growth inhibitory effects	–	9330	–	–
CCN(c1cc(-c2cccc(N(Cc3ccccc3)C(=O)c3cc(C(C)C)c(O)cc3O)c2)cc(C(=O)NCc2c(C)cc(C)[nH]c2=O)c1C)C1CCOCC1 [Compound 10, 3′-(N-Benzyl-2,4-dihydroxy-5-isopropylbenzamido)-N-((4,6-dimethyl-2-oxo-1,2-dihydropyridin-3-yl)methyl)-5-(ethyl(tetrahydro-2H-pyran-4-yl)amino)-4-methyl-[1,1′-biphenyl]-3-carboxamide]	641	–	unable to exert cell growth inhibitory effects	–	2840	–	–
CCN(c1cc(-c2ccc(CN3CCOCC3)cc2)cc(C(=O)NCc2c(C)cc(C)[nH]c2=O)c1C)C1CCOCC1 [Tazemetostat, reference compound]	–	–	unable to exert cell growth inhibitory effects	–	–	–	failed to suppress tumor growth

From paper PMC10895674, “First-in-Class Dual EZH2-HSP90 Inhibitor Eliciting Striking Antiglioblastoma Activity In Vitro and In Vivo” (Journal of Medicinal Chemistry, 2024)
